In patent US20230255195A1, “CRYOPRESERVATION METHOD FOR ORGAN-ON-A-CHIP” (MEPSGEN CO., LTD., priority 2020, published 2023):

Tested on: three-dimensional organ-on-a-chip (hBMEC, pericytes, astrocytes in hydrogel)
Assay: TEER (transepithelial electrical resistance) of organ-on-a-chip after cryopreservation and thawing
Format: cell-based, human
Settings: for TEER value after freezing compared with TEER value before freezing (normalized): FIG. 10; for TEER value after freezing compared with TEER value before freezing (normalized, before freezing set to 1): substance used as cryoprotectant in the cryopreservation method of Example 2, FIG. 9
Description: 10 μl of fibronectin was injected into each of the first channel and the second channel of the organ-on-a-chip of the present invention, and cultured in an incubator for 1 hour. Cell adhesion promoters of the first channel and the second channel were removed, and 10^7 cells/ml of a pericyte solution was injected into the second channel. After culturing for 3 hours in an incubator with the chip inverted, the culture solution in the second channel was removed. After injecting 10^7 cells/ml of a mixture in which astrocytes and hydrogel were mixed in a 1:9 volume ratio into the second channel, they were cultured in an incubator for 30 minutes. The culture solution was injected into the side channel and the first channel, and the well reservoir was filled with the culture solution and cultured for one day, and then 10^7 cells/ml of human brain microvascular endothelial cell (hBMEC) solution was injected into the first channel. After culturing for 1 hour in an incubator, the culture solution in the first channel was replaced and cultured for one day. The culture solution in the first channel and the side channel was replaced, and the side channel was plugged in, and then one side of the inlets of the first channel was connected to a syringe pump, and the other side was connected to a culture solution tank, and perfusion culture was performed at 4 dynes/cm^2 for 24 hours.
All of the culture solution in the well reservoir was removed from the organ-on-a-chip of Example 1 above, and the first channel and the side channel were washed with the culture solution. The side channel was washed twice with the cryopreservation solution (50% culture solution, 40% FBS, 10% DMSO) at 4 to 10° C. The culture solution in both inlets of the first channel was removed, and 30 μl of the cryopreservation solution was put into the inlet, and the cryopreservation solution was flowed by a difference in hydrostatic pressure (1 minute required). The preservation solution in the opposite inlet was removed, and 30 μl of the cryopreservation solution was additionally put into the inlet, and the cryopreservation solution was flowed by a difference in hydrostatic pressure (1 minute required). The chip was placed in a freezing container filled with isopropanol, and stored refrigerated for 15 minutes at 4° C., and then stored in a deep freezer (−80° C.).
The organ-on-a-chip of Example 2 above was taken out of the deep freezer and thawed for 10 minutes by immersing it in a constant temperature water bath (37° C.) so that the bottom was in contact, and then the culture solution in the side channel was replaced twice with a culture solution at 37° C. The preservation solution in both inlets of the first channel was removed, and 30 μl of the culture solution at 37° C. was put into the inlet, and the culture solution was flowed by a difference in hydrostatic pressure (1 minute required). The culture solution in the opposite inlet was removed, and 30 μl of the culture solution at 37° C. was additionally put into the inlet, and the culture solution was flowed by a difference in hydrostatic pressure (1 minute required). The well reservoir was filled with the culture solution at 37° C. and cultured for 24 hours or more.
The TEER value corresponds to a representative index for evaluating the cell-to-cell bonding force and the material permeability rate of the tissue and the like in the tissue function of the three-dimensional organ-on-a-chip.
The TEER value (ohm/cm^2) was calculated as follows, and the TEER value before freezing was set to 1 and compared and evaluated with the TEER value after freezing (normalized).

Structure (SMILES)	TEER value after freezing compared with TEER value before freezing (normalized) (DMSO content 3% in preservation solution)	TEER value after freezing compared with TEER value before freezing (normalized) (DMSO content 5% in preservation solution)	TEER value after freezing compared with TEER value before freezing (normalized) (DMSO content 10% in preservation solution)	TEER value after freezing compared with TEER value before freezing (normalized, before freezing set to 1)
C[S+](C)[O-] [DMSO, dimethyl sulfoxide]	remained the same	increased	increased	increased
OCCO [EG, ethylene glycol]	–	–	–	lower than the TEER value before freezing
OCC(O)CO [glycerol]	–	–	–	remained the same
